These results are taken from ChEMBL document CHEMBL4270595, “Design, synthesis, antiproliferative activity, molecular docking and cell cycle analysis of some novel (morpholinosulfonyl) isatins with potential EGFR inhibitory activity” (Eur J Med Chem, 2018).

Molecules are shown by their SMILES. Calls of active or inactive are those of the source. The rule behind the calls is not given here.

Test [1] is described as follows: Cytotoxicity against human Caco cells after 24 hrs by SRB assay. Format: functional, cell-based. Background: Sulforhodamine B stains cellular protein and so reports cell mass.
For test [2], the system named is HCT-116. As to the kind of experiment: Cytotoxicity against human HCT116 cells after 24 hrs by SRB assay. In kind it is functional, cell-based. Particulars: HCT-116, 24 h.
The subject of test [3] is HepG2. As to the kind of experiment: Cytotoxicity against human HepG2 cells after 24 hrs by SRB assay. Format: functional, cell-based. The settings on record: HepG2, 24 h.
The subject of test [4] is MCF7. As to the kind of experiment: Cytotoxicity against human MCF7 cells after 24 hrs by SRB assay. Format: functional, cell-based. The settings on record: MCF7, 24 h.
For test [5], the system named is WI-38. As to the kind of experiment: Cytotoxicity against human WI38 cells after 24 hrs by SRB assay. Format: cell-based. The settings on record: WI-38, 24 h.
The test system of test [6] is HepG2. As to the kind of experiment: Cell cycle arrest in human HepG2 cells assessed as accumulation of cells at G0/G1 phase at 10 uM after 24 hrs by flow cytometric analysis (reference value: 52.31%). Format: functional. In general terms: A flow cytometer gives signals particle by particle.
The test system of test [7] is HepG2. As to the kind of experiment: Induction of apoptosis in human HepG2 cells assessed as viable cells at 10 uM after 24 hrs by Annexin V-FITC/ propidium iodide staining-based flow cytometric analysis (reference value: 96.09%). Particulars: HepG2, 24 h, read-out: Activity. In kind it is functional.
The test system of test [8] is HepG2. As to the kind of experiment: Induction of apoptosis in human HepG2 cells assessed as late apoptotic cells at 10 uM after 24 hrs by Annexin V-FITC/ propidium iodide staining-based flow cytometric analysis (reference value: […]). Format: functional.
Test [9] relates to HepG2. As to the kind of experiment: Induction of apoptosis in human HepG2 cells assessed as necrotic cells at 10 uM after 24 hrs by Annexin V-FITC/ propidium iodide staining-based flow cytometric analysis (reference value: 1.28%). In kind it is functional.
The test system of test [10] is HepG2. As to the kind of experiment: Cell cycle arrest in human HepG2 cells assessed as accumulation of cells at pre-G1 phase at 10 uM after 24 hrs by flow cytometric analysis (reference value: 2.04%). Format: functional.
Test [11] concerns the target T1, Epidermal growth factor receptor (Homo sapiens, UniProt P00533). As to the kind of experiment: Inhibition of EGFR in human HepG2 cells assessed as suppression of EGFR phosphorylation after 8 hrs by Western blot analysis. Format: cell-based. (In general: A western blot detects proteins with antibodies after separation by electrophoresis.)
For test [12], the target named is Receptor tyrosine-protein kinase erbB-2 (Homo sapiens, UniProt P04626). As to the kind of experiment: Inhibition of recombinant human GST-tagged HER2 (676-end) expressed in baculovirus infected Sf9 insect cells preincubated for 5 mins followed by ATP addition and measured after 30 mins by HTRF assay.
The target of test [13] is Epidermal growth factor receptor (Homo sapiens, UniProt P00533, L858R). As to the kind of experiment: Inhibition of recombinant human EGFR L858R mutant expressed in baculovirus infected insect cells preincubated for 5 mins followed by ATP addition and measured after 30 mins by HTRF assay. In kind it is cell-based.
Test [14] has as its target Epidermal growth factor receptor (Homo sapiens, UniProt P00533, T790M). As to the kind of experiment: biochemical. In kind it is cell-based, Sf21.
In test [15] the test system is HepG2. As to the kind of experiment: Cell cycle arrest in human HepG2 cells assessed as accumulation of cells at S phase at 10 uM after 24 hrs by flow cytometric analysis (reference value: 31.31%). In kind it is functional.
Test [16] deals with T1, Epidermal growth factor receptor. As to the kind of experiment: Inhibition of EGFR in human HepG2 cells. Format: cell-based.
The target is the same in test [17]. As to the kind of experiment: Inhibition of EGFR in human HepG2 cells assessed as suppression of ERK phosphorylation up to 2 uM after 8 hrs by Western blot analysis. In kind it is cell-based.
Test [18] addresses Vascular endothelial growth factor receptor (Homo sapiens, UniProt P17948+P35916+P35968). Format: cell-based. Particulars: sf9.
Description: Inhibition of GST-tagged recombinant human VEGFR (789-end) expressed in baculovirus infected Sf9 insect cells preincubated for 5 mins followed by ATP addition and measured after 30 mins by HTRF assay
Test [19] deals with HepG2. As to the kind of experiment: Induction of apoptosis in human HepG2 cells assessed as early apoptotic cells at 10 uM after 24 hrs by Annexin V-FITC/ propidium iodide staining-based flow cytometric analysis (reference value: 0.51%). Format: functional.
For test [20], the system named is HepG2. As to the kind of experiment: Cell cycle arrest in human HepG2 cells assessed as accumulation of cells at G2/M phase at 10 uM after 24 hrs by flow cytometric analysis (reference value: 16.38%). Format: functional.
Test [21] can be described thus: Inhibition of recombinant human FGFR preincubated for 5 mins followed by ATP addition and measured after 30 mind by HTRF assay.

T1 sequence (P00533 whole entry): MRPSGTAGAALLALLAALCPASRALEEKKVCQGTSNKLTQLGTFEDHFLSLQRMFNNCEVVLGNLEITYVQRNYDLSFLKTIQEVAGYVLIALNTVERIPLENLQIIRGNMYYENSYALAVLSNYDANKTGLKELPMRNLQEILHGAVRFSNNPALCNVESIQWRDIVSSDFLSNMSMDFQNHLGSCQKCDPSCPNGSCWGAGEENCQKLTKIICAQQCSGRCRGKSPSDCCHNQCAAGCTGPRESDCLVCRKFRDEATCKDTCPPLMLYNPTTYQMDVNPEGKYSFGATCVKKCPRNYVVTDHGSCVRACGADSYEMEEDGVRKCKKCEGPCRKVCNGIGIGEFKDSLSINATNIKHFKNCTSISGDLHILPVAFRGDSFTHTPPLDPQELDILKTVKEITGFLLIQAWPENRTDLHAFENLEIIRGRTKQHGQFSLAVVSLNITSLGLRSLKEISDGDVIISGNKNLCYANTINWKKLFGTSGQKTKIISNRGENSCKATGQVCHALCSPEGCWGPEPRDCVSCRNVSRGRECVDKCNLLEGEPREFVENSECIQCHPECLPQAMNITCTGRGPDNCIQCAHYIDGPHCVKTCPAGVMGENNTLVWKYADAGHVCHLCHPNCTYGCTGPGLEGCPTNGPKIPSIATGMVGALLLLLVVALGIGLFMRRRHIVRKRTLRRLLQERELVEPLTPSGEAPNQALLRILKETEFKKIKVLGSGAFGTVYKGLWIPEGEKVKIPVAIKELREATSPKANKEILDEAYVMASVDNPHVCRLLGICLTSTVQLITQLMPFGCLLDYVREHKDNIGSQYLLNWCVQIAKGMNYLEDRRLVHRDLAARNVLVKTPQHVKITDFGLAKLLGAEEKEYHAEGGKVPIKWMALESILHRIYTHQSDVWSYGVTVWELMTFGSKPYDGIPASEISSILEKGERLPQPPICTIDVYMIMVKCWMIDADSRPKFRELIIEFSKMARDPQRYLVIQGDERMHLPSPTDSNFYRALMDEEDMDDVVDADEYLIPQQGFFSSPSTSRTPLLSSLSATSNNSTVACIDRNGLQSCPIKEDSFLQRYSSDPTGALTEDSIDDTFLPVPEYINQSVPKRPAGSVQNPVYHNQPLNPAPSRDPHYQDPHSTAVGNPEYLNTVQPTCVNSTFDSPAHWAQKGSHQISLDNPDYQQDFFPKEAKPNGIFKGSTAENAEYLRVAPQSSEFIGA
Epidermal growth factor receptor (Homo sapiens, UniProt P00533, T790M), sequence (P00533 25-1210 T790M limits assumed): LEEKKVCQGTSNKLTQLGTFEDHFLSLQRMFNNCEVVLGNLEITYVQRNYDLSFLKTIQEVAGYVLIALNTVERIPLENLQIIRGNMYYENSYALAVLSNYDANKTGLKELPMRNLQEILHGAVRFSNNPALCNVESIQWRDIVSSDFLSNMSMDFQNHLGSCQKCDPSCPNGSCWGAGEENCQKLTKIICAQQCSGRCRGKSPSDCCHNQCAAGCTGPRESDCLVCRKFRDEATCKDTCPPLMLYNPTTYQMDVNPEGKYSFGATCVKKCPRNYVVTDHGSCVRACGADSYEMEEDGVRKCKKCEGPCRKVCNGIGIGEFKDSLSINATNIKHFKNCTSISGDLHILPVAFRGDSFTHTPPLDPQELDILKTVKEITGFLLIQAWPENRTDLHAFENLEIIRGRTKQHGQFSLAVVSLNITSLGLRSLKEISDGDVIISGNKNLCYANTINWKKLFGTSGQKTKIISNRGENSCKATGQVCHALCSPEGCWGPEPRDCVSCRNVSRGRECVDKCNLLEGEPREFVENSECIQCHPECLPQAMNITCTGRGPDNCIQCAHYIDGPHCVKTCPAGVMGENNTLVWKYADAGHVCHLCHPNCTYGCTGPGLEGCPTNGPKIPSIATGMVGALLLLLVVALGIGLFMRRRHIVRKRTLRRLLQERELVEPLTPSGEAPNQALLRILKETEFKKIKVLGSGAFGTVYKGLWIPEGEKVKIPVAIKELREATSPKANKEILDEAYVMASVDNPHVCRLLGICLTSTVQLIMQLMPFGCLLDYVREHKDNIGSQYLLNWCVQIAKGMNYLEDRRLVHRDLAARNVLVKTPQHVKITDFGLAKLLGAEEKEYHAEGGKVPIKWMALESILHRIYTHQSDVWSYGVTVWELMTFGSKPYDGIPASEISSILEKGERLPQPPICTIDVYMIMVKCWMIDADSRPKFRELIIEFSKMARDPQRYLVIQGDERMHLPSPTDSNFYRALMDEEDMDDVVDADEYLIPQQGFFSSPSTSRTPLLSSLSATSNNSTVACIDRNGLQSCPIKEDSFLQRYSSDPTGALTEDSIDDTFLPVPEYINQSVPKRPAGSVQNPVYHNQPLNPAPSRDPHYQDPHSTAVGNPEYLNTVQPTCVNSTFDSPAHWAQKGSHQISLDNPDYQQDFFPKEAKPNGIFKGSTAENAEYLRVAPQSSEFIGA
Receptor tyrosine-protein kinase erbB-2, sequence (P04626 whole entry): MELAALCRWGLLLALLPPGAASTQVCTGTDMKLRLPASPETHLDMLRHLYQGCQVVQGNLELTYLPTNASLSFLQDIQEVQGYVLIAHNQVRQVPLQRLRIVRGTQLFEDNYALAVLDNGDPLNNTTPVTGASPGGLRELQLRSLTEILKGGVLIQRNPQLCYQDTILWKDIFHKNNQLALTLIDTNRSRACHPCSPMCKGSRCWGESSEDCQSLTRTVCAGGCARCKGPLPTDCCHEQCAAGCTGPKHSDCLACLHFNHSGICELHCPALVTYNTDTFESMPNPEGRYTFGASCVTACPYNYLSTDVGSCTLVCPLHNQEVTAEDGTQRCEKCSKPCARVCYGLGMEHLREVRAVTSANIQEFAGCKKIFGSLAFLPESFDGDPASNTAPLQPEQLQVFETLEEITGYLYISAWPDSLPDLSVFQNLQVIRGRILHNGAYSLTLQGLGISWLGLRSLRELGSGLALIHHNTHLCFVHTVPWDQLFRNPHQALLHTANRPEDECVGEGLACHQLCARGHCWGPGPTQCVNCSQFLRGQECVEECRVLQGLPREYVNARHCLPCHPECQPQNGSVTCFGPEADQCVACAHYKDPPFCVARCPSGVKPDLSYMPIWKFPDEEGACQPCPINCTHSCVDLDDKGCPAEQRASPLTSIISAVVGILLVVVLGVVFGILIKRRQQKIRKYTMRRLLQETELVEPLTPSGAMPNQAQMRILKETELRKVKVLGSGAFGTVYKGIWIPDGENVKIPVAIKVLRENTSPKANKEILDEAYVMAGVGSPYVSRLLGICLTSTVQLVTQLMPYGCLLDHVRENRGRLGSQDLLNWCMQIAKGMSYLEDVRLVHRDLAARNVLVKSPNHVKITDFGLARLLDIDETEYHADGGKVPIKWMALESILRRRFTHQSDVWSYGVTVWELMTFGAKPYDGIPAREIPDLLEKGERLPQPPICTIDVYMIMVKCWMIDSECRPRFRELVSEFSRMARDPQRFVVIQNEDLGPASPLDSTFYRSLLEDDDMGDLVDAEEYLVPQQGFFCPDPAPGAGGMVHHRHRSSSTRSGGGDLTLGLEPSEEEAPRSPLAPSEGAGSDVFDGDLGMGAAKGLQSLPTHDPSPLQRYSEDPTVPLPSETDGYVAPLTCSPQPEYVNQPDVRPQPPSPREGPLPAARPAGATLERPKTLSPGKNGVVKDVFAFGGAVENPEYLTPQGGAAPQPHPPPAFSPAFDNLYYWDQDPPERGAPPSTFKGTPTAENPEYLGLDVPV
Epidermal growth factor receptor (Homo sapiens, UniProt P00533, L858R), sequence (P00533 25-1210 L858R limits assumed): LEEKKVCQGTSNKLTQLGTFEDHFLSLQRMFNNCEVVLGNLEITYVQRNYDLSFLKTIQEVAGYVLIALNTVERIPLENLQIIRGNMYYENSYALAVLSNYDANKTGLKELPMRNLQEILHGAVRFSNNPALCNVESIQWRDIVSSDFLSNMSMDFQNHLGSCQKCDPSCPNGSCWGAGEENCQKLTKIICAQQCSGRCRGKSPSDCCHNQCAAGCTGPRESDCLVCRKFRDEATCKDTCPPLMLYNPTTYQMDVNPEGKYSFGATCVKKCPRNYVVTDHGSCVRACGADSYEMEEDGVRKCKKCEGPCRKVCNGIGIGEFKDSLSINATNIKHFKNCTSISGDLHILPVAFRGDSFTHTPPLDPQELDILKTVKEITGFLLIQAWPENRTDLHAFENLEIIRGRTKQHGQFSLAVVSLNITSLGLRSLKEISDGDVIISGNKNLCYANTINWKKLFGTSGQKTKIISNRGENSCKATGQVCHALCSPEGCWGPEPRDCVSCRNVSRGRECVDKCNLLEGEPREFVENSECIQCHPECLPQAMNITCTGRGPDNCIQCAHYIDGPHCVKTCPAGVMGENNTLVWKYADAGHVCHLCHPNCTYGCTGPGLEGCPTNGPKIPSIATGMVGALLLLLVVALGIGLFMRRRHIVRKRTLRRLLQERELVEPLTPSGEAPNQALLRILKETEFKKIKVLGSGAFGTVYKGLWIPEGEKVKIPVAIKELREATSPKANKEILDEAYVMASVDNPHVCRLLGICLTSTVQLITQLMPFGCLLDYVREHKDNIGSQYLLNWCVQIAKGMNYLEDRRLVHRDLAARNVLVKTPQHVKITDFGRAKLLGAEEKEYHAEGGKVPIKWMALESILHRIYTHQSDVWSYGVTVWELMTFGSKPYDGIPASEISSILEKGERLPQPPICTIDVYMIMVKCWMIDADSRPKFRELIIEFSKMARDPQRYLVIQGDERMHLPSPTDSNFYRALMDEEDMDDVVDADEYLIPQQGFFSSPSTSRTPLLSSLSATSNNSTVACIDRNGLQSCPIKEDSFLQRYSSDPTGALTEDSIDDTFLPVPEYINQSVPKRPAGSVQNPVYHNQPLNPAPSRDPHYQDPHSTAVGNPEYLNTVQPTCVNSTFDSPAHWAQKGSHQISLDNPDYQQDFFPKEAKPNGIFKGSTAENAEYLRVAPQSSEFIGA

By IC50 is commonly meant the concentration that inhibits the measured activity by half. In the case of `Cc1ccc(S(=O)(=O)N/N=C2\C(=O)Nc3ccc(S(=O)(=O)N4CCOCC4)cc32)cc1`, the IC50 in [1] is 14.6 µM; in test [2], 23.4 µM; in test [3], 24.7 µM; in test [4], 38.4 µM; in test [5], 261 µM.

As to `COC(=O)c1ccccc1/N=C1\C(=O)Nc2ccc(S(=O)(=O)N3CCOCC3)cc21`, the IC50 in test [1] was found to be 23.5 µM; in test [2], 18.7 µM; in [3], 14 µM; in test [4], 31.4 µM; in [5], 228 µM.

As to `N/N=C1\C(=O)Nc2ccc(S(=O)(=O)N3CCOCC3)cc21`, the IC50 in [1] came to 49.6 µM; in [2], 36.3 µM; in test [3], 32.4 µM; in [4] it was 46.8 µM; in [5] it was 391 µM.

As to `N#CCC(=O)N/N=C1\C(=O)Nc2ccc(S(=O)(=O)N3CCOCC3)cc21`, the Activity worked out at 40.31% in test [6]; 7.51% in [8]; 3.41% in test [9]; 14.09% in test [10]; 15.58% in test [15]; 3.17% in test [19]. Further, the Activity in test [20] is 44.11%. In addition, the viability at 10 µM in test [7] stood at 83.6%. The IC50 in test [1] was 9.66 µM; in test [2], 10.3 µM; in test [3], 7.53 µM; in [4] it was 27.7 µM; in [5], 302 µM; in test [12], 0.24 µM. Moreover, the IC50 in test [13] came to 0.0338 µM; in [14] it was 0.137 µM; in test [16], 0.023 µM; in test [18], 0.276 µM; in test [21] it was 0.378 µM. Also, the inhibition result in [11] was “Dose-dependent effect”. The inhibition entry in test [17] was “Active”.

As for `COc1cccc2c1C(=O)c1c(O)c3c(c(O)c1C2=O)C[C@@](O)(C(=O)CO)C[C@@H]3O[C@H]1C[C@H](N)[C@H](O)[C@H](C)O1` [DOXORUBICIN], the results for the IC50 in [1], in test [2] and in [3] were 5.91 µM, 8.29 µM and 7.46 µM, respectively.

Consider `COc1ccc(C2=C(C#N)C3=NC4=Nc5ccc(S(=O)(=O)N6CCOCC6)cc5C4=NC3C(O)=C2C#N)cc1` (stereo not drawn), for which the IC50 stood at 7.24 µM in test [1]; 9.73 µM in test [2]; 7.3 µM in test [3]; 11.9 µM in test [4]; 324 µM in test [5]; 0.108 µM in test [16].

Consider `C#Cc1cccc(Nc2ncnc3cc(OCCOC)c(OCCOC)cc23)c1` [ERLOTINIB], for which the IC50 in [21] was found to be 0.03 µM.

Regarding `O=C1Nc2ccc(S(=O)(=O)N3CCOCC3)cc2/C1=N/c1ccc(C(=O)O)cc1`, the IC50 in [1] was 25.7 µM; in test [2], 23.6 µM; in [3] it was 23.1 µM; in [4], 26.7 µM; in [5], 313 µM.

On to `O=C1Nc2ccc(S(=O)(=O)N3CCOCC3)cc2/C1=N/c1ccc(/N=C2\C(=O)Nc3ccc(S(=O)(=O)N4CCOCC4)cc32)cc1`, for which the IC50 in [1] was found to be 9.16 µM; in test [2], 7.48 µM; in test [3], 8.84 µM; in test [4] it was 10.9 µM; in test [5], 203 µM; in [16], 1.18 µM.

For `O=C1Nc2ccc(S(=O)(=O)N3CCOCC3)cc2/C1=N/c1ccc(Cl)cc1`, the IC50 in [1] was determined as 23.7 µM; in [2], 24.3 µM; in test [3], 11.8 µM; in test [4], 44.3 µM; in test [5] it was 468 µM.

Regarding `O=S(=O)(c1ccc2[nH]c3nc4ccccc4nc3c2c1)N1CCOCC1`, the IC50 worked out at 18.9 µM in test [1]; 19.2 µM in [2]; 27.2 µM in [3]; 40.8 µM in [4]; 418 µM in test [5].

On to `COc1ccc(-c2c(C#N)c(N)n(/N=C3\C(=O)Nc4ccc(S(=O)(=O)N5CCOCC5)cc43)c(=O)c2C#N)cc1`, for which the concentration for half-maximal inhibition (IC50) in test [1] was 10.3 µM; in test [2] it was 18.1 µM; in test [3], 15 µM; in test [4] it was 33.4 µM; in [5] it was 224 µM; in test [16] it was 1.93 µM.

Consider `O=C1Nc2ccc(S(=O)(=O)N3CCOCC3)cc2/C1=N/c1ccc(O)cc1`, for which the IC50 stood at 17.8 µM in test [1]; 27.3 µM in [2]; 10.4 µM in test [3]; 52.7 µM in [4]; 259 µM in [5]; 0.751 µM in [16].

For the compound `N=c1oc2ccccc2cc1C(=O)N/N=C1\C(=O)Nc2ccc(S(=O)(=O)N3CCOCC3)cc21`, the IC50 in test [1] came out at 8.21 µM; in test [2], 6.75 µM; in test [3] it was 7.82 µM; in [4], 20.8 µM; in [5], 132 µM; in [16], 0.205 µM.

In the case of `Cc1ccc(/N=C2\C(=O)Nc3ccc(S(=O)(=O)N4CCOCC4)cc32)cc1`, the IC50 in test [1] was determined as 33 µM; in test [2], 18.9 µM; in test [3], 12.8 µM; in test [4] it was 55.9 µM; in [5] it was 309 µM.

Turning to `CS(=O)(=O)CCNCc1ccc(-c2ccc3ncnc(Nc4ccc(OCc5cccc(F)c5)c(Cl)c4)c3c2)o1` [LAPATINIB], the IC50 came out at 12.1 µM in test [1], 5.92 µM in [2], 11.7 µM in test [3] and 5.02 µM in test [4].

In the case of `O=C1Nc2ccc(S(=O)(=O)N3CCOCC3)cc2/C1=N/c1ccc(Br)cc1`, the IC50 stood at 29.4 µM in test [1]; 15.3 µM in test [2]; 11.9 µM in [3]; 44.8 µM in [4]; 372 µM in test [5].

In the case of `O=C1Nc2ccc(S(=O)(=O)N3CCOCC3)cc2/C1=N/NS(=O)(=O)c1ccccc1`, the IC50 came to 16.4 µM in test [1]; 13.3 µM in test [2]; 23.9 µM in test [3]; 25.3 µM in [4]; 302 µM in [5].

With `O=C1Nc2ccc(S(=O)(=O)N3CCOCC3)cc2/C1=N/c1cccc(C(F)(F)F)c1`, the IC50 was 21.2 µM in [1]; 15.9 µM in [2]; 14.3 µM in test [3]; 41.1 µM in test [4]; 226 µM in [5].

Turning to `O=C1Nc2ccc(S(=O)(=O)N3CCOCC3)cc2C1=O`, the IC50 in [1] was found to be 45.6 µM; in test [2], 60 µM; in test [3], 28.6 µM; in test [4], 67.9 µM; in test [5], 588 µM.

For the compound `O=C1Nc2ccc(S(=O)(=O)N3CCOCC3)cc2/C1=N/Nc1ccccc1`, the Activity in [6] was 38.92%; in [8], 9.49%; in test [9] it was 2.69%; in test [10], 16.46%; in [15], 14.77%; in test [19] it was 4.28%. The Activity in test [20] came to 48.31%. The viability at 10 µM in test [7] was 81.4%. In addition, the IC50 in [1] was found to be 20 µM; in test [2] it was 10.5 µM; in [3] it was 15.6 µM; in test [4], 30.3 µM; in test [5] it was 262 µM; in [16] it was 0.046 µM.

Turning to `O=C1Nc2ccc(S(=O)(=O)N3CCOCC3)cc2/C1=N/NC(=O)c1ccccc1`, the IC50 in test [1] turned out to be 36.2 µM; in [2] it was 28.9 µM; in test [3], 18.1 µM; in test [4], 414 µM; in [5] it was 295 µM.

Turning to `CC(=O)c1cccc(/N=C2\C(=O)Nc3ccc(S(=O)(=O)N4CCOCC4)cc32)c1`, the IC50 in [1] was 21.4 µM; in test [2] it was 29 µM; in test [3], 28.6 µM; in [4], 39.2 µM; in test [5], 177 µM.

`CC(=O)N/N=C1\C(=O)Nc2ccc(S(=O)(=O)N3CCOCC3)cc21`: the IC50 was 18.4 µM in test [1]; 29 µM in test [2]; 27.5 µM in [3]; 56 µM in test [4]; 325 µM in test [5].
